Assay results reported in ChEMBL document CHEMBL1201862, “PubChem BioAssay data set” (2004).
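Compound exposure: 48 hours, 5 concentrations, 96-well plates. GI50: concentration for 50% inhibition of growth.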 Activity calls are given as the source filed them. Cut-off read from the data, not from the text of the source: active = GI50 up to about 1.1 µM and inactive = higher.

Tests used:
Assay in all cases: NCI-60 cell line screen, 48 h
[1] = tested on: HL-60
[2] = tested on: KM12
[3] = tested on: SN12C
[4] = tested on: IGROV-1
[5] = tested on: UACC-257
[6] = tested on: OVCAR-5
[7] = tested on: HCT-15
[8] = tested on: HT-29
[9] = tested on: SR
[10] = tested on: A498
[11] = tested on: ACHN
[12] = tested on: HCT-116
[13] = tested on: LOX IMVI
[14] = tested on: OVCAR-4
[15] = tested on: PC-3
[16] = tested on: SW-620
[17] = tested on: EKVX
[18] = tested on: A549
[19] = tested on: NCI-H23
[20] = tested on: BT-549
[21] = tested on: K562
[22] = tested on: SK-MEL-28
[23] = tested on: M14
[24] = tested on: Hs-578T
[25] = tested on: SF-539
[26] = tested on: DU-145
[27] = tested on: MDA-MB-435
[28] = tested on: MDA-MB-231
[29] = tested on: MDA-N
[30] = tested on: NCI-H226
[31] = tested on: COLO 205
[32] = tested on: HOP-92
[33] = tested on: RXF 393
[34] = tested on: 786-0
[35] = tested on: NCI-H522
[36] = tested on: OVCAR-3
[37] = tested on: SK-MEL-2
[38] = tested on: SNB-75
[39] = tested on: NCI-H460
[40] = tested on: T47D
[41] = tested on: CCRF-CEM
[42] = tested on: Malme-3M
[43] = tested on: UO-31
[44] = tested on: MCF7
[45] = tested on: TK-10
[46] = tested on: U-251
[47] = tested on: SK-OV-3
[48] = tested on: OVCAR-8
[49] = tested on: HOP-62
[50] = tested on: SK-MEL-5
[51] = tested on: MOLT-4
[52] = tested on: SF-295
[53] = tested on: RPMI-8226
[54] = tested on: CAKI-1
[55] = tested on: HCC 2998
[56] = tested on: SF-268
[57] = tested on: NCI/ADR-RES
[58] = tested on: UACC-62
[59] = tested on: SNB-19

Compound: O=C(Nc1nnc(-c2ccc(Cl)cc2)o1)C(SC(=S)N1CCCCC1)c1ccccc1 (centres undefined)
- GI50 [1]: 8.59 µM (inactive)
- GI50 [2]: 24.8 µM (inactive)
- GI50 [3]: 12.5 µM (inactive)
- GI50 [4]: 9.38 µM (inactive)
- GI50 [5]: 21.7 µM (inactive)
- GI50 [6]: 21.5 µM (inactive)
- GI50 [7]: 7.16 µM
- GI50 [8]: 22.2 µM (inactive)
- GI50 [9]: 3.91 µM (inactive)
- GI50 [10]: 18.5 µM (inactive)
- GI50 [11]: 15.7 µM (inactive)
- GI50 [12]: 12.7 µM (inactive)
- GI50 [13]: 6.12 µM (inactive)
- GI50 [14]: 22 µM (inactive)
- GI50 [15]: 22.4 µM (inactive)
- GI50 [16]: 33.3 µM (inactive)
- GI50 [17]: 20.7 µM (inactive)
- GI50 [18]: 16.4 µM (inactive)
- GI50 [19]: 21.9 µM (inactive)
- GI50 [20]: 17.6 µM (inactive)
- GI50 [21]: 11.6 µM (inactive)
- GI50 [22]: 18.1 µM (inactive)
- GI50 [23]: 13.2 µM (inactive)
- GI50 [24]: 26.2 µM (inactive)
- GI50 [25]: 30 µM (inactive)
- GI50 [26]: 25.7 µM (inactive)
- GI50 [27]: 21.2 µM (inactive)
- GI50 [28]: 19.4 µM (inactive)
- GI50 [29]: 15.5 µM (inactive)
- GI50 [30]: 32.7 µM (inactive)
- GI50 [31]: 24.4 µM (inactive)
- GI50 [32]: 22.7 µM (inactive)
- GI50 [33]: 24.8 µM (inactive)
- GI50 [34]: 14.8 µM (inactive)
- GI50 [35]: 17.6 µM (inactive)
- GI50 [36]: 19.3 µM (inactive)
- GI50 [37]: 15.7 µM (inactive)
- GI50 [38]: 39.1 µM (inactive)
- GI50 [39]: 7.6 µM (inactive)
- GI50 [40]: 27.2 µM (inactive)
- GI50 [41]: 4.71 µM (inactive)
- GI50 [42]: 3.11 µM (inactive)
- GI50 [43]: 10.5 µM (inactive)
- GI50 [44]: 18.7 µM (inactive)
- GI50 [45]: 34 µM (inactive)
- GI50 [46]: 13 µM (inactive)
- GI50 [47]: 32.3 µM (inactive)
- GI50 [48]: 22.1 µM (inactive)
- GI50 [49]: 25.9 µM (inactive)
- GI50 [50]: 15.7 µM (inactive)
- GI50 [51]: 1.31 µM (inactive)
- GI50 [52]: 12 µM (inactive)
- GI50 [53]: 11.2 µM (inactive)
- GI50 [54]: 13.6 µM (inactive)
- GI50 [55]: 21.4 µM (inactive)
- GI50 [56]: 6.5 µM (inactive)
- GI50 [57]: 4.84 µM (inactive)
- GI50 [58]: 14.2 µM (inactive)
- GI50 [59]: 20.5 µM (inactive)
